# How the values were obtained:
# [1] = molecular target: T1, Muscarinic acetylcholine receptor M5 (Homo sapiens, UniProt P08912); type: cell membranes, CHO-K1, Membrane; conditions: cho-k1
# T1 sequence (P08912 whole entry): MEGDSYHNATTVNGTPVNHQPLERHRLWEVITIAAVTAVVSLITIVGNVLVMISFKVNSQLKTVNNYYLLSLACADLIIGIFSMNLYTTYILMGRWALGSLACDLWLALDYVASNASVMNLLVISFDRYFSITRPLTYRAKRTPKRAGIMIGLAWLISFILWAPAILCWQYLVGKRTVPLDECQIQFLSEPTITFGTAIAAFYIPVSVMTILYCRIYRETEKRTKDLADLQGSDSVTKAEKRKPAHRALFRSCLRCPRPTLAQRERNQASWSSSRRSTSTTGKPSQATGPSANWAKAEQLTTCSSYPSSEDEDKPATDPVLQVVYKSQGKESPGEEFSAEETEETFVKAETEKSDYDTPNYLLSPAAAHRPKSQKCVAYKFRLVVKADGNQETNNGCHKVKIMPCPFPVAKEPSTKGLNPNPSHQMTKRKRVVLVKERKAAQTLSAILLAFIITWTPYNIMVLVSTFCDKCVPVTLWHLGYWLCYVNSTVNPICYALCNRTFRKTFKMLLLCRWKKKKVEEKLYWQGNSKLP
# Cytochrome P450 2E1 = Cytochrome P450 2E1 (Homo sapiens, UniProt P05181); conditions: bti-tn-5b1-4
# Chain of Cytochrome P450 2E1 (P05181 whole entry): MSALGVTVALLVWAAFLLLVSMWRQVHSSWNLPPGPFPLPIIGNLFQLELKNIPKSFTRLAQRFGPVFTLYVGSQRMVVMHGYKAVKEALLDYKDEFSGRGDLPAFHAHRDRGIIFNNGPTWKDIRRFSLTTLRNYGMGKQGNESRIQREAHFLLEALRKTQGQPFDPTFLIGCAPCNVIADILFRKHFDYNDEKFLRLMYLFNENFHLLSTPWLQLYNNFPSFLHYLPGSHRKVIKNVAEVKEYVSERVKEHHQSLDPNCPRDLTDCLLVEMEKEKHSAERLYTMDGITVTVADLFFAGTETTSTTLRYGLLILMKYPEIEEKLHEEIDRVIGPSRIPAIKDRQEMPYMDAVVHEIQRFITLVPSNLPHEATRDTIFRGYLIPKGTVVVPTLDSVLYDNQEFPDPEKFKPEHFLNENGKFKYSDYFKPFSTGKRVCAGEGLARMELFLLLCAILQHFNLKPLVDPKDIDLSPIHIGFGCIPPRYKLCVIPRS
# Adenosine receptor A3 = molecular target: T2, Adenosine receptor A3 (Homo sapiens, UniProt P0DMS8); type: cell membranes, CHO-K1, Membrane; conditions: cho-k1;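 note: radioligand binding assay with AB-MECA serving as the labeled ligand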
# T2 sequence (P0DMS8 whole entry): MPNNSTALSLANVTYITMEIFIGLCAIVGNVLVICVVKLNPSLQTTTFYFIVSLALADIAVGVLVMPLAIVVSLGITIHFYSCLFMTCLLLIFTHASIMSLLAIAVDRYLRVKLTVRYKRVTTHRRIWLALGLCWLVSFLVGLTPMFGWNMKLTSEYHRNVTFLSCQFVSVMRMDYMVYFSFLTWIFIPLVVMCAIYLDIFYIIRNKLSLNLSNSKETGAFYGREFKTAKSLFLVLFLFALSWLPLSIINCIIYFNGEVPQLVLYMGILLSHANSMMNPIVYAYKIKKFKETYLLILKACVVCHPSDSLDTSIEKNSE
# [2] = molecular target: T3, 3-hydroxy-3-methylglutaryl-coenzyme A reductase (Homo sapiens, UniProt P04035); set-up: species or system Escherichia coli;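 note: enzyme inhibition assay of HMG-CoA reductase using radiolabeled [14C]HMG-CoA as substrate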
# T3 sequence (P04035 whole entry): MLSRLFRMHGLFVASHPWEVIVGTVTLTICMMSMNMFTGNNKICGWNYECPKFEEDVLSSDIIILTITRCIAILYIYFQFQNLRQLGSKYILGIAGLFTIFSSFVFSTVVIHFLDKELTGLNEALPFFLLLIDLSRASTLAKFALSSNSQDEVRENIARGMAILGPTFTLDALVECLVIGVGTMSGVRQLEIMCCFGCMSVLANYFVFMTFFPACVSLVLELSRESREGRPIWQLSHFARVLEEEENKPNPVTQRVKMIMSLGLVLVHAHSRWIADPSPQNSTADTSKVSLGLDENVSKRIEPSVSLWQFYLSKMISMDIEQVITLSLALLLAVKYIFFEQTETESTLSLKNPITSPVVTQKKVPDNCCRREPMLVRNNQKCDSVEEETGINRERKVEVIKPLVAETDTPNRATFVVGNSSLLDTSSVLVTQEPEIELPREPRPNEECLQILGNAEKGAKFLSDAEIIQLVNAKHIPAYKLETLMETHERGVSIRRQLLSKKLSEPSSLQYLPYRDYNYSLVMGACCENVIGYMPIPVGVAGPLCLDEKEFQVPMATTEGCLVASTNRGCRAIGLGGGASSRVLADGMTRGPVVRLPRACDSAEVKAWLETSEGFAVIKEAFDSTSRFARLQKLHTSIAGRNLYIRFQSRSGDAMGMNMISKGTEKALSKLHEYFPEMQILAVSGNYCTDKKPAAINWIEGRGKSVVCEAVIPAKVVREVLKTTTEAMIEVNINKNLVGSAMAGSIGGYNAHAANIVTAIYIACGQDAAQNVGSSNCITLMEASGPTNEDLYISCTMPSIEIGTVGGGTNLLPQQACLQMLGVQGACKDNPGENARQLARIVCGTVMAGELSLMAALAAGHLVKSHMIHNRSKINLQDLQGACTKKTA
# [3] = molecular target: T4, 5-hydroxytryptamine receptor 1A (Rattus norvegicus, UniProt P19327); type: cell membranes, CHO-K1, Membrane
# T4 sequence (P19327 whole entry): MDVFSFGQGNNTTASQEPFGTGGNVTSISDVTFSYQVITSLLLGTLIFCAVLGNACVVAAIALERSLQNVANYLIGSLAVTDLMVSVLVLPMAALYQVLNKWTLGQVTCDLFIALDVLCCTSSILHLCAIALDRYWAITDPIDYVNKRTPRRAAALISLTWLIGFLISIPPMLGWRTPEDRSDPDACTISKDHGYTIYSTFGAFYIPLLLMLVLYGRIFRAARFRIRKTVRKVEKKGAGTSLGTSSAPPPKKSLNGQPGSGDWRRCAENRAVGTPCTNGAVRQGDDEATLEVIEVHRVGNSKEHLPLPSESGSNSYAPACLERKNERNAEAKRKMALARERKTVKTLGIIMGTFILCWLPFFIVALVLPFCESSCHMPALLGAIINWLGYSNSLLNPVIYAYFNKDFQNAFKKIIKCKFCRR
# Note: in other assays of this panel Not Active means under 50% inhibition at 10 µM.
SMILES,IC50 [1],IC50 (Cytochrome P450 2E1),Ki (Cytochrome P450 2E1),IC50 (Adenosine receptor A3),IC50 [2],IC50 ([3]; cho-k1),IC50 ([3]; read-out: IC50),Ki ([3]; read-out: Ki)
CCCCC(=O)N(Cc1ccc(-c2ccccc2-c2nnn[nH]2)cc1)[C@H](C(=O)O)C(C)C,Not Active,Not Active,Not Active,Not Active,Not Active,Not Active,,
O=C(O)COc1ccc(C(=O)c2cccs2)c(Cl)c1Cl,Not Active,Not Active,Not Active,Not Active,Not Active,Not Active,,
CN1[C@@H]2CC[C@H]1C[C@@H](OC(c1ccccc1)c1ccccc1)C2 [BENZTROPINE],,Not Active,Not Active,Not Active,Not Active,Not Active,,
C[C@@](Cc1ccc(O)c(O)c1)(NN)C(=O)O.O [CARBIDOPA],Not Active,Not Active,Not Active,Not Active,Not Active,Not Active,,
CN1CCN(C2=Nc3cc(Cl)ccc3Nc3ccccc32)CC1 [CLOZAPINE],,Not Active,Not Active,Not Active,Not Active,,,
CC(C)NC[C@@H](O)COc1cccc2ccccc12 [DEXPROPRANOLOL],Not Active,Not Active,Not Active,Not Active,Not Active,,,
CC(C)NC[C@H](O)COc1cccc2ccccc12 [LEVOPROPRANOLOL],Not Active,Not Active,Not Active,Not Active,Not Active,,,
"O=C(O)CCCCC1CCSS1 (stereo not drawn) [LIPOIC ACID, ALPHA]",Not Active,Not Active,Not Active,Not Active,Not Active,Not Active,,
CN(C)C(=O)C(CCN1CCC(O)(c2ccc(Cl)cc2)CC1)(c1ccccc1)c1ccccc1 [LOPERAMIDE],Not Active,Not Active,Not Active,Not Active,Not Active,Not Active,,
Clc1ccc(COC(Cn2ccnc2)c2ccc(Cl)cc2Cl)c(Cl)c1 (stereo not drawn) [MICONAZOLE],Not Active,Not Active,Not Active,,Not Active,,11.5 µM,6.56 µM
Oc1ccc2c3c1O[C@H]1[C@@H](O)CC[C@@]4(O)[C@@H](C2)N(CC2CCC2)CC[C@]314 [NALBUPHINE],Not Active,,,Not Active,Not Active,Not Active,,
C[C@]12C=CC(=O)C=C1CC[C@@H]1[C@@H]2C(=O)C[C@@]2(C)[C@H]1CC[C@]2(O)C(=O)CO [PREDNISONE],Not Active,,,Not Active,Not Active,Not Active,,
OCCOCCN1CCN(C2=Nc3ccccc3Sc3ccccc32)CC1 [QUETIAPINE],,Not Active,Not Active,Not Active,Not Active,,,
COC(=O)[C@H]1[C@H]2C[C@@H]3c4[nH]c5cc(OC)ccc5c4CCN3C[C@H]2C[C@@H](OC(=O)c2cc(OC)c(OC)c(OC)c2)[C@@H]1OC [RESERPINE],Not Active,Not Active,Not Active,Not Active,Not Active,Not Active,,
